# Source: patent publication US20130053336A1, “TREATMENT OF CHLAMYDIACEAE INFECTIONS BY MEANS OF BETA-LACTAMS” (priority 2010, published 2013)
# Entries after “also recorded” stand apart in the source; their conditions may differ.
# Columns and labels:
# [1] = tested on: Chlamydia trachomatis inclusions; experiment: Fusion of lysosomes with inclusions (cathepsin D, LysoTracker, confocal microscopy); format: cell-based
# [2] = tested on: Chlamydia trachomatis serovar L2; experiment: Infectivity of progeny bacteria (IFU titration, reactivation test); format: cell-based
# Experimental: HeLa cells were infected with the Chlamydia trachomatis L2 serovar at 1 inclusion forming unit (IFU). At 3 hpi, 3 equal batches were distinguished and penicillin G was added at a concentration of 100 U/ml to the “penicillin G” batch (black bar) and “reversion” (gray bar) but not in the control batch (white bar). At 24 hpi, penicillin G was removed from the culture medium in the reversion group. At 48 hpi or 100 hpi, the supernatants and the cells were combined and stored at -80° C. Fresh cultures of HeLa cells were then incubated for 1 hour with cell extracts (left) or supernatants (right), incubated with cycloheximide and fixed 24 hours later. The nuclei and the inclusions were stained and counted to calculate the number of IFU/ml. […] It is also a first indication of the lethality of Chlamydia. HeLa cells were infected with Chlamydia trachomatis serovar L2 at 1 IFU. At 3 hpi, penicillin G was added at a concentration of 1, 10 or 100 U/ml in the penicillin G (-) and reversion (+) samples. At 24 hpi, penicillin G was removed from the culture medium in the reversion group (+). At 48 hpi or 100 hpi, the supernatants and the cells were collected and stored at -80° C. HeLa cells grown on slides were incubated for 1 hour with cell extracts (left) or with supernatants (right), treated with cycloheximide and fixed 24 hours later. The nuclei and inclusions were stained and counted to determine the number of IFU/ml. […] The infections were carried out at 37° C. for 90 minutes with centrifugation, followed by a washing of extracellular bacteria. At 3 hpi, after the washings, the culture medium was replaced with medium containing either 25 μg/ml gentamicin or 1-100 IU/ml penicillin G. At regular intervals after treatment with penicillin G, the cultures were either fixed in 4% neutral buffered PFA for 30 minutes to be prepared for confocal microscopy, or collected to determine the infectivity of the progeny bacteria, according to the previously described method (Verbeke, P. et al. PLoS Pathog 2:e45, 2006). HeLa cells cultured in monolayers on slides were infected with Chlamydia trachomatis serovar L2 and treated with penicillin G, as described above. Twenty hours after infection, the culture was washed and the medium replaced with medium free of penicillin G. Between 48 and 100 hpi, the cells and the culture medium were collected at various intervals and a titration test was performed according to the method of the prior art (Scidmore, M. A. Curr Protoc Microbiol Chapter 11: Unit 11A 11, 2005). To determine whether treatment with penicillin G could affect bacterial persistence, HeLa cells infected with L2 and treated with IFN-γ and penicillin G (500 IU/ml) from 48 hpi (i.e. 24 hours after treatment with IFN-γ) to 72 hpi (i.e. 48 hours after treatment with IFN-γ). The slides were then fixed and observed using an epifluorescence microscope (Leica D M, Leica, Mannheim, Germany) equipped with two sets of detection filters (Hoechst 360/40 nmBP-425 nmLP; FITC 480/40 nmBP-527/30 nmBP) and connected to a CCD camera CCC.
# [3] = tested on: serovar L2 of the Chlamydia trachomatis LGV biovar, serovar D of the trachoma biovar, Chlamydia muridarum; experiment: Abnormal inclusions in different host cell types, serovars and Chlamydia species; format: cell-based; settings: THP-1, RL95-2, HeLa, C. muridarum, penicillin G at 3 hpi
# Source text: In blue in the original figure; Hoechst, in green in the original figure: anti-Chlamydia sp. Image taken at 24 hpi (RL95-2/Chlamydia L2; HeLa/Chlamydia-D; HeLa/C. muridarum) or at 48 hpi (THP-1/Chlamydia-L2; THP-1/Chlamydia-D). Scale: 10 μm.
# In order to examine whether the effects of penicillin G on bacterial infectivity depend on the strain or the serovar, ATCC serovar L2 and C. trachomatis serovar D, graciously provided by Dr. de Barbeyrac (University of Bordeaux II, Bordeaux, France) were used. C. muridarum was obtained from Dr. Roger Rank (University of Arkansas, Little Rock, Ark., USA). The bacteria were propagated as a matter of routine in HeLa cells as described above and stored at −80° C. before use (Scidmore, M. A. Curr Protoc Microbiol Chapter 1: Unit 11A 11, 2005). The number of inclusion forming units (IFU) was determined by immunofluorescence, as described above (Verbeke, P. et al. PLoS Pathog 2:e45, 2006).
# To examine the effects of penicillin G on cell infection with Chlamydia, the host cells were cultivated up to 70% confluence without antibiotics, and then were infected with C. trachomatis strain L2 or D, or with C. muridarum at 1 IFU. The infections were carried out at 37° C. for 90 minutes with centrifugation, followed by a washing of extracellular bacteria. […]
# [4] = tested on: Chlamydia muridarum; experiment: Murine model of genital infection (hydrosalpinx); format: in vivo, C57B1/6 mice; settings: 5 mg/ml in drinking water for 20 days from day 10, read 60 days later
# Source text: The mice were infected by vaginal route with 10^7 IFU of Chlamydia muridarum. […] The antibiotic treatment was stopped after 20 days and the mice were kept isolated for an additional 60 days. The mice were then sacrificed, the appearance of the genital tract analyzed and the presence of hydrosalpinx (arrows) sought.
# C57B1/6 mice were infected with Chlamydia muridarum, a Chlamydia species that infects mice and guinea pigs and is genetically close to Chlamydia trachomatis. Estrous cycles in the mice were initiated by injection of progesterone, and then the mice were infected vaginally after 3 days (10^7 IFU). Ten days after infection, the mice were divided into three groups, a negative control group not receiving any antibiotic, a positive control group receiving doxycycline (5 mg/ml) and a test group receiving penicillin G (5 mg/ml). The duration of the treatment was 20 days; the antibiotics, doxycycline and penicillin G, were added to the mice's drinking water. After treatment, the mice were kept isolated for 60 days in order for persistent bacteria to reinitiate their cycle and for sequelae to develop. The mice were then sacrificed, the appearance of the genital tract analyzed and the presence of hydrosalpinx sought. Various organs were also taken.
# The effects of penicillin G were tested in a murine model of genital infection. […]
compound,measurement,setting,value
"CC1(C)S[C@@H]2[C@H](NC(=O)Cc3ccccc3)C(=O)N2[C@H]1C(=O)O [Penicillin G, benzylpenicillin]",localization of cathepsin D in inclusions,"[1]; HeLa, 24 hpi",the majority of the abnormal bacterial forms contained cathepsin D
same,cathepsin D in abnormal inclusions of other cell/serovar pairs,[1]; RL95-2 cells/serovar L2 or HeLa cells/serovar D,also contain cathepsin D
same,LysoTracker-stained compartments and inclusions,[1]; confocal videomicroscopy,compartments stained with LysoTracker probes enter abnormal inclusions
same,infectivity at low penicillin G concentrations,"[2]; 1, 10 or 100 U/ml, permanent or transitory treatment",same irreversible loss of infectivity; also recorded: no reinfection was obtained
same,infectivity after removing penicillin G at 24 hpi (reversion),"[2]; 100 U/ml from 3 hpi, removed at 24 hpi",no improvement in infectivity
same,infectious ability (IFU/ml) with or without reversion phase,"[2]; 100 U/ml, 48 hpi or 100 hpi, cell extracts and supernatants, FIG. 2",no infectious ability could be shown
same,infectivity of bacteria collected at 48 hpi compared with gentamicin-treated cells,"[2]; continuous 100 IU/ml, 48 hpi",several hundred times less infectious
same,infectivity of bacteria released at 100 hpi,"[2]; continuous 100 IU/ml, 100 hpi",completely noninfectious
same,"generation of abnormal inclusions in other host cells, serovars, species",[3],"independent of the type of host cell, serovar, biovar or even species of Chlamydia bacterium used; also recorded: exhibiting abnormal inclusions"
same,appearance of the genital tract / hydrosalpinx,[4],normal appearance
